From patent US12612424B2, “HPK1 inhibitors and uses thereof” (Regor Pharmaceuticals, Inc., priority 2019, dated 2026) come the findings set out here.

Structures are written as SMILES. Where two headings read alike, the source gives them in different places.

One assay has as its target HPK1 (Homo sapiens, UniProt Q92918). The assay can be described thus: HPK1 biochemical assay (ADP-GLO Kinase Assay). An excerpt: IC50 values of any compounds can be determined accordingly over a range of inhibitor concentrations. In addition, the inhibitory effect of the compounds can also be assess using a biological assay, to determine the effect of the compounds on cytokine secretion by T cells following TCR and CD28 stimulation.
Biology Example 1 HPK1 Biochemical Assay
This example used the ADP-GLO™ Kinase Assay to measure the effect of potential HPK1 inhibitor compounds on HPK1 kinase activity.
The ADP-GLO™ Kinase Assay (Promega Corp., Madison, WI) measures ADP formed from a kinase reaction. According to the manufacture, the ADP formed in a kinase assay is first converted into ATP, which is then used to generate light in a luciferase reaction. The luminescence generated correlates with kinase activity. An exemplary experimental setting is described below, though minor adjustments can be made in individual assays.
Serial 3-fold dilution of compounds from 10 μM (top concentration) to 0.508 nM (lowest concentration). Positive control is 10 μM Reference+enzyme+substrate. Negative control is 1% DMSO+enzyme+substrate.
• 1. Buffer Preparation • 40 mM Tris pH7.5; 20 mM MgCl2, 0.1 mg/ml BSA, 50 μM DTT Buffer Stock
Add 20 mL 1M Tris and 10 mL 1M MgCl2 to 470 mL ddH2O to get buffer stock, and stock at RT. • 2. Preparing Fresh 1* Assay Buffer
• 3. Compounds Preparation • 1) The compounds were diluted to 1 mM, by mixing 10 μL of 10 mM respective compound stocks with 90 μL of DMSO. • 2) The compounds were then diluted 3-fold for 10 doses (5 μL to 10 μL dilution) by BRAVO. The top compound conc. was 1 mM (100×), DMSO Conc. was 100%. • 3) Transfer 100 nL of each diluted compound sample to 384-well plate (Corning-4512) by ECHO. • 4) Centrifuge the plate at 1,500 rpm for 1 minute. • 4. Preparation of 2×ATP-MBP Mixture: • 20 μM ATP, 0.2 μg/μL MBP in Kinase Buffer (final concentration: 10 μM ATP, 0.1 MBP)
• 5. Preparation of 2×HPK1 working solution with assay buffer. • HPK1 final concentration was 0.6 ng/μL. […] Incubate at 25° C. for 40 min. • 11. Record luminescence signal on an Envision plate reader (384-CTG). 5. Data Analysis
The percent (%) inhibition at each concentration of compound is calculated based on and relative to the signal in the High and Low control wells contained within each assay plate. […] The concentrations and % inhibition values for tested compounds were plotted and the concentration of compound required for 50% inhibition (IC50) was determined with a Three-parameter logistic dose response equation. The endpoint value (IC50) for the reference peptide/compound was evaluated in each experiment as a quality control measure. If the endpoint value was within 3-fold of the expected value, then the experiment was deemed acceptable.

For a further assay, the target named is T1, JAK3 (Homo sapiens, UniProt P52333).
T1 construct: purchased Thermo fisher PV3855
T1 sequence (P52333 781-1124 limits assumed): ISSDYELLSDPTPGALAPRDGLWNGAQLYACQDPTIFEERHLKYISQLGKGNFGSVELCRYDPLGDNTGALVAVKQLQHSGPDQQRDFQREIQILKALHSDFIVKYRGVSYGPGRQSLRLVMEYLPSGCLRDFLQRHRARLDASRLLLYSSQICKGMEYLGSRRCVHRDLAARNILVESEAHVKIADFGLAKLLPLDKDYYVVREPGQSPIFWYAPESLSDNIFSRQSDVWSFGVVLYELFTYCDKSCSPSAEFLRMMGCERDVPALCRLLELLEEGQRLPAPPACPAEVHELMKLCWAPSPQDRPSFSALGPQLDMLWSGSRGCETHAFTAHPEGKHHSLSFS
The assay can be described thus: JAK3 biochemical assay (ADP-GLO Kinase Assay). The settings on record: for JAKs/HPK1 IC50 Ratio, B*: first testing facility. The procedure: Biology Example 4 JAK3 Biochemical Assay
This example used the ADP-GLO™ Kinase Assay to measure the effect of potential HPK1 inhibitor compounds on JAK3 kinase activity. An exemplary experimental setting is described below, though minor adjustments can be made in individual assays.
3. Procedures • 1. Prepare JAK3 kinase buffer • Freshly adding DTT and BSA into Buffer (Final Conc.: 40 mM Tris pH7.5; 20 mM MgCl2, 0.1 mg/ml BSA, 50 μM DTT).
• 2. Compounds Preparation • For tested compounds: compounds were diluted to 1 mM, by mixing 5 μL of 10 mM compound stocks to 45 μL DMSO. The compounds solutions were then serially diluted 3-fold for 10 doses. The top compound concentration was 1 mM (100×), DMSO concentration was 100%. • 50 nL of each of 10 doses of diluted compound were added to 384-well assay plate (Corning #4512) by ECHO. • For positive control, 50 nL of 1 mM reference compound were added to 384-well assay plate (Corning #4512) by ECHO. • For negative control: 50 nL of DMSO was transferred into 384-well assay plate as a negative control. • The assay plate was centrifuged at 1,500 rpm for 1 minute. • 3. Compounds were Transferred by ECHO Following the Layout Below: • Reference and test compounds 1-15: serial 3-fold dilution from 10 μM to 0.508 nM (10 doses); negative control is 0.78 ng JAK3, 4 μM ATP & 0.2 μg/μL poly, 1% DMSO; positive control is the top dose of the reference compound, 0.78 ng JAK3, 0.2 μg/μL Poly(E4Y1), 4 μMATP, 1% DMSO. • 4. Add 2.5 μL/well of 2×JAK3 working solution using pipette (Thermo, 30 μL multi-channel), Centrifuge at 1,500 rpm for 1 minute. • 5. Add 2.5 μL/well of 2×ATP-Poly(E4Y1) working mixture using pipette (Thermo, 30 μL multi-channel), Centrifuge at 1,500 rpm for 1 minute. • 6. Incubate the assay plate at 25° C. for 60 min. • 7. Add 5 μL/well ADP-GLO™ Reagent by BRAVO to stop the kinase reaction and deplete the unconsumed ATP after 1 hour. Centrifuge at 1,500 rpm for 1 minute. Incubate at 25° C. for 40 min. • 8. Add 10 uL of Kinase Detection Reagent by BRAVO to convert ADP to ATP. Centrifuge at 1,500 rpm for 1 minute. Incubate at 25° C. for 40 min. • 9. Record luminescence signal on an Envision plate reader (384-USL). • 10. Process data using XL-fit. Inhibition %=[1-(test well−Negative control)/(positive control−Negative control)]*100%. 5. Data Analysis
The percent (%) inhibition at each concentration of compound is calculated based on and relative to the signal in the Negative and Positive control wells contained within each assay plate. The Negative control wells served as 0% inhibition, and the Positive control wells served as 100% inhibition. The concentrations and % inhibition values for tested compounds are plotted and the concentration of compound required for 50% inhibition (IC50) is determined with a Three-parameter logistic dose response equation. The endpoint value (IC50) for the reference peptide/compound is evaluated in each experiment as a quality control measure. If the endpoint value was within 3-fold of the expected value then the experiment was deemed acceptable.

Setting [1] is: B*: testing performed in a first testing facility, read-out: HPK1 IC50 (nM) Relative, B*.
Setting [2] is: B*: testing performed in a first testing facility, read-out: JAK3 IC50 (nM) Relative, B*.
Where [3] appears, read: ratio of JAK3 IC50 to HPK1 IC50.

Sequence of HPK1 (Q92918 whole entry): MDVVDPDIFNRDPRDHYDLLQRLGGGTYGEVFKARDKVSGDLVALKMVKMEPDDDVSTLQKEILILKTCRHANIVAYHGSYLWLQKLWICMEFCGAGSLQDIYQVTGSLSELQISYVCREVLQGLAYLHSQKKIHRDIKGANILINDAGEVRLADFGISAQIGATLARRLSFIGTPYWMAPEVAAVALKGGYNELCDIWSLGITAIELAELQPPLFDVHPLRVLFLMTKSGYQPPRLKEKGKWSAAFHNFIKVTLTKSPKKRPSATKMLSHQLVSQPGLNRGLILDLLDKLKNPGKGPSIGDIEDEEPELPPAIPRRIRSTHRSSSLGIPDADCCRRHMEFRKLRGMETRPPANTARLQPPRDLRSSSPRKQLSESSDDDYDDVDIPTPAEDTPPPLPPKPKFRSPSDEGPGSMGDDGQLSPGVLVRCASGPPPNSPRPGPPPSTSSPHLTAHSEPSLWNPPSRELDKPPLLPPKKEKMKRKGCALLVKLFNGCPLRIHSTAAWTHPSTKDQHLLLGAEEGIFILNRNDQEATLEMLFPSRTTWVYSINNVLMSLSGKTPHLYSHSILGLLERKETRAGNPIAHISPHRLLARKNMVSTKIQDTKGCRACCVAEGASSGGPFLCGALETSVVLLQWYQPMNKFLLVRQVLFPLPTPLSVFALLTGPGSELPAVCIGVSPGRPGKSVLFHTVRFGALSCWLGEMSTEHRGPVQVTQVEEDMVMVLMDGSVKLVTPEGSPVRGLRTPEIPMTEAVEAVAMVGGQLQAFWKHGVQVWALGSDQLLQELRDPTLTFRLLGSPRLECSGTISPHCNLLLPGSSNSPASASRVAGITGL

`CCc1c[nH]c2ncc(-c3ccc(O)c(P(C)(C)=O)c3)cc12` [Example 55, (5-(3-Ethyl-1H-pyrrolo[2,3-b]pyridin-5-yl)-2-hydroxyphenyl)dimethylphosphine oxide]: the IC50 is no more than 100 nM at HPK1 (setting [1]) and 100 to 500 nM on JAK3 (setting [2]). Moreover, the “JAKs/HPK1 IC50 Ratio, B*” value at JAK3 (setting [3]) turned out to be 20.
In the case of `CCc1c[nH]c2ncc(-c3ccc(OC)c(P(C)(C)=O)c3)cc12` [Example 54, (5-(3-Ethyl-1H-pyrrolo[2,3-b]pyridin-5-yl)-2-methoxyphenyl)dimethylphosphine oxide], at HPK1 (setting [1]), the IC50 lay in the range of 100 to 500 nM.
As for `COc1cc2c(cc1Nc1ncc(Cl)c(-n3cc(NS(C)(=O)=O)c4ccccc43)n1)CN(C)CC2` [Example 94, N-(1-(5-chloro-2-((6-methoxy-2-methyl-1,2,3,4-tetrahydroisoquinolin-7-yl)amino)pyrimidin-4-yl)-1H-indol-3-yl)methanesulfonamide], the concentration for half-maximal inhibition (IC50) is no more than 100 nM at HPK1 (setting [1]) and greater than 1000 nM at JAK3 (setting [2]). The “JAKs/HPK1 IC50 Ratio, B*” value at JAK3 (setting [3]) was found to be 449.
Regarding `COc1ccc2c(c1)C(C(=O)O)CN2c1nc(Nc2cc3c(cc2OC)CCN(C)C3)ncc1Cl` (stereo not shown) [Example 106, 1-(5-Chloro-2-((6-methoxy-2-methyl-1,2,3,4-tetrahydroisoquinolin-7-yl)amino)pyrimidin-4-yl)-5-methoxyindoline-3-carboxylic acid], the IC50 at HPK1 (setting [1]) and at JAK3 (setting [2]) was no more than 100 nM each time. Besides, the “JAKs/HPK1 IC50 Ratio, B*” value on JAK3 (setting [3]) amounted to 11.
`CCc1c[nH]c2ncc(-c3ccc(C)c(P(C)(C)=O)c3)cc12` [Example 50, (5-(3-Ethyl-1H-pyrrolo[2,3-b]pyridin-5-yl)-2-methylphenyl)dimethylphosphine oxide]: the IC50 on HPK1 (setting [1]) was no more than 100 nM; at HPK1 (N*: testing performed in a second testing facility, read-out: HPK1 IC50 (nM) Relative, N*) it was no more than 100 nM; at JAK3 (setting [2]), greater than 1000 nM; on JAK3 (N*: testing performed in a second testing facility, read-out: JAK3 IC50 (nM) Relative, N*), greater than 1000 nM. Further, the “JAKs/HPK1 IC50 Ratio, B*” value on JAK3 (setting [3]) came to 163. Further, the “JAKs/HPK1 IC50 Ratio, N*” value at JAK3 (ratio of JAK3 IC50 to HPK1 IC50, second testing facility) was determined as 101.
Regarding `COc1cc2c(cc1Nc1ncc3ncn(-c4ccccc4P(C)(C)=O)c3n1)CN(C)CC2` [Example 45, (2-(2-((6-Methoxy-2-methyl-1,2,3,4-tetrahydroisoquinolin-7-yl)amino)-9H-purin-9-yl)phenyl)dimethylphosphine oxide], the IC50 at HPK1 (setting [1]) is greater than 1000 nM.
The same measure, in the same setting: to `COc1cc2c(cc1Nc1ncc3ccn(-c4cccnc4)c3n1)CN(C)CC2` [Example 40, 6-Methoxy-2-methyl-N-(7-(pyridin-3-yl)-7H-pyrrolo[2,3-d]pyrimidin-2-yl)-1,2,3,4-tetrahydroisoquinolin-7-amine] belongs no more than 100 nM; to `CCc1c[nH]c2ncc(-c3ccc(NC)c(P(C)(C)=O)c3)cc12` [Example 71, (5-(3-Ethyl-1H-pyrrolo[2,3-b]pyridin-5-yl)-2-(methylamino)phenyl)dimethylphosphine oxide], 100 to 500 nM; to `COc1cc2c(cc1Nc1ncc(Cl)c(N3CCc4cccnc43)n1)CN(C)CC2` [Example 17, N-(5-chloro-4-(2,3-dihydro-1H-pyrrolo[2,3-b]pyridin-1-yl)pyrimidin-2-yl)-6-methoxy-2-methyl-1,2,3,4-tetrahydroisoquinolin-7-amine], 100 to 500 nM.
Same read-out and setting: to `COc1cc2c(cc1Nc1ncc3c(n1)N(c1ccccc1)CCO3)CN(C)CC2` [Example 46, N-(6-methoxy-2-methyl-1,2,3,4-tetrahydroisoquinolin-7-yl)-8-phenyl-7,8-dihydro-6H-pyrimido[5,4-b][1,4]oxazin-2-amine] belongs 100 to 500 nM; to `COc1cc2c(cc1Nc1ncc(Cl)c(N3CCc4ccccc4C3)n1)CN(C)CC2` [Example 5, N-(5-chloro-4-(3,4-dihydroisoquinolin-2(1H)-yl)pyrimidin-2-yl)-6-methoxy-2-methyl-1,2,3,4-tetrahydroisoquinolin-7-amine], 100 to 500 nM; to `CCc1c[nH]c2ncc(-c3cc(C)cc(P(C)(C)=O)c3)cc12` [Example 56, (3-(3-Ethyl-1H-pyrrolo[2,3-b]pyridin-5-yl)-5-methylphenyl)dimethylphosphine oxide], 500 to 1000 nM.
Still for that read-out and setting: to `COc1cc2c(cc1Nc1ncc(Cl)c(N3CCc4ccccc43)n1)CN(C(=O)CN(C)C)CC2` [Example 26] belongs no more than 100 nM.
For the compound `CCc1c[nH]c2ncc(-c3ccc(N4CCCC4)c(P(C)(C)=O)c3)cc12` [Example 59], the IC50 at HPK1 (setting [1]) was 100 to 500 nM.
The same measure, in the same setting: then `COc1cc2c(cc1Nc1ncc(Cl)c(-n3c(C(=O)N(C)C)cc4ccccc43)n1)CN(C)CC2` [Example 28], with greater than 1000 nM.
Same read-out and setting: then `CCc1c[nH]c2ncc(-c3cccc(P(C)(C)=O)c3)cc12` [Example 53, (3-(3-Ethyl-1H-pyrrolo[2,3-b]pyridin-5-yl)phenyl)dimethylphosphine oxide], with 100 to 500 nM; and `COc1cc2c(cc1Nc1ncc(Cl)c(-c3ccnc4ccccc34)n1)CN(C)CC2` [Example 49, N-(5-chloro-4-(quinolin-4-yl)pyrimidin-2-yl)-6-methoxy-2-methyl-1,2,3,4-tetrahydroisoquinolin-7-amine], with 100 to 500 nM; and `CCc1c[nH]c2ncc(-c3ccc(Cl)c(P(C)(C)=O)c3)cc12` [Example 52, (2-Chloro-5-(3-ethyl-1H-pyrrolo[2,3-b]pyridin-5-yl)phenyl)dimethylphosphine oxide], with no more than 100 nM.
The same measure, in the same setting: to `COc1cc2c(cc1Nc1ncc(Cl)c(N3CCc4c(Cl)cccc43)n1)CN(C)CC2` [Example 12, N-(5-chloro-4-(4-chloroindolin-1-yl)pyrimidin-2-yl)-6-methoxy-2-methyl-1,2,3,4-tetrahydroisoquinolin-7-amine] belongs 100 to 500 nM.
For `COc1cc2c(cc1Nc1ncc3ccc(P(C)(C)=O)cc3n1)CN(C)CC2` [Example 172], the IC50 at HPK1 (setting [1]) was in the range of 100 to 500 nM.
